Test results: patent US20230416261A1, “ETHANEDIAMINE-HETEROCYCLE DERIVATIVES AS INHIBITORS OF PROTEIN ARGININE METHYLTRANSFERASES” (Board of Regents, The University of Texas System, priority 2021, published 2023)

Columns and labels:
[1] = tested on: PANC-1 (pancreatic ductal adenocarcinoma) xenograft; test: Anti-tumor effects in PANC-1 mouse xenograft model; format: in vivo; conditions: BID, 28 days, C.B-17 SCID mice
Method: The effect of the compounds of Examples 1 and 2 on tumor growth was assessed in a PANC-1 (pancreatic ductal adenocarcinoma) mouse xenograft model. Female C.B -Igh-I^b/IcrTac-Prkdc^scid (C.B-17 SCID) mice were injected subcutaneously in the right flank with a suspension of […] cells (5 million cells with 50% Matrigel (Corning #356231) in sterile Dulbecco's phosphate buffered saline (DPBS, Life Technologies #14190-144). After implantation, tumor volume (TV) was measured weekly and mice bearing tumors with volumes ˜200 mm^3 were randomized into treatment groups of 8 mice each. Mice were dosed by oral gavage, twice daily for 28 days with either vehicle or 1 and 2 at the doses reported in Table 6 and Table 7 respectively. The doses were scaled to the body weights (BW) of individual animals at a dosing volume of 5 mL/Kg. Throughout the duration of study tumor growth was assessed by caliper measurement and treatment response was determined by percent tumor growth inhibition (% TGI; calculated as TGI %=(Ci−Ti)/(Ci−C0)*100%; Ci and Ti are the mean tumor volumes of the vehicle and treatment groups on the measurement day, respectively; C0 is the mean tumor volume of the vehicle group on day 0 (i.e. the day before treatment started). Mouse body weight was measured bi-weekly and reported as percentage of BW change from day 0 (calculated as Body Weight Change %=(BWi−BW0)/BW0*100%; BWi and BW0 are body weight of an individual mouse on measurement day i and on day 0, respectively). Statistical significance was calculated by repeated-measures two-way ANOVA with multiple comparisons and Tukey correction using GraphPad Prism 8.0.

PRMT1 = PRMT1 (Homo sapiens, UniProt Q99873); test: PRMT1 Enzymatic Assay (LANCE TR-FRET, methylation of histone H4 at Arg3); format: biochemical; parameters: purchased SignalChem P365-380G; conditions: PRMT1 1.5 nM, SAM 1 μM, biotinylated histone H4 (1-21) 25 nM; read-out: PRMT-1 IC50
PRMT1, sequence (Q99873 whole entry): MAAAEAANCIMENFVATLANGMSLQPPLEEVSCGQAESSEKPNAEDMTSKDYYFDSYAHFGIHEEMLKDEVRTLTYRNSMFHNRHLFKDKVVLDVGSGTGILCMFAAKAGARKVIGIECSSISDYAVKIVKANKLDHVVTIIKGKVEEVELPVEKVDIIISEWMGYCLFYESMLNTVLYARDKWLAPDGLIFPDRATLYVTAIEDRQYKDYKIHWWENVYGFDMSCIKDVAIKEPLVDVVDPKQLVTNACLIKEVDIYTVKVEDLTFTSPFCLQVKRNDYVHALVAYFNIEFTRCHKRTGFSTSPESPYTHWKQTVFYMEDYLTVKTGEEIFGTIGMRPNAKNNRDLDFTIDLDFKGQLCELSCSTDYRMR
In short: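 PRMT1 (1.5 nM) preincubated 15 min with compound at room temperature, then reacted 1 h with 1 μM SAM and 25 nM biotinylated histone H4 (1-21) in 50 mM Hepes pH 8, 1 mM TCEP, 0.003% Tween-20. H4R3me detected by TR-FRET (665/620 nm ratio); IC50 from four-parameter logistic fit.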

| IC50 (PRMT1) [nM] | SMILES | Tumor Growth Inhibition % (TGI %; day 28) ([1]; 150 mg/Kg PO) [%] | Tumor Growth Inhibition % (TGI %; day 28) ([1]; 225 mg/Kg PO) [%] |
| --- | --- | --- | --- |
| 35 | CNCCN(C)Cc1nn2c(c1C1CCC(COC)(COC)CC1)CN(C(=O)C1CCC1)CC2 [Example 1, (3-(4,4-Bis(methoxymethyl)cyclohexyl)-2-((methyl(2-(methylamino)ethyl)amino)methyl)-6,7-dihydropyrazolo[1,5-a]pyrazin-5(4H)-yl)(cyclobutyl)methanone] | 49 | 68 |
| 16 | COCC1(COC)CCC(c2c(CN(C)CCN)nn3c2CN(C(=O)C(C)(C)C)CC3)CC1 [Example 2, 1-(2-(((2-aminoethyl)(methyl)amino)methyl)-3-(4,4-bis(methoxymethyl)cyclohexyl)-6,7-dihydropyrazolo[1,5-a]pyrazin-5(4H)-yl)-2,2-dimethylpropan-1-one] | 48 | 70 |
